Experimental findings from patent US12404265B2, “Substituted pyridine derivatives as SARM1 inhibitors” (Nura Bio, Inc., priority 2020, dated 2025) are described below.

Structures are written as SMILES.

This test has as its target T1, human SARM1(50-724) (Homo sapiens, UniProt Q6SZW1).
T1 construct: 40 nM human SARM1(50-724)
T1 sequence (Q6SZW1 50-724): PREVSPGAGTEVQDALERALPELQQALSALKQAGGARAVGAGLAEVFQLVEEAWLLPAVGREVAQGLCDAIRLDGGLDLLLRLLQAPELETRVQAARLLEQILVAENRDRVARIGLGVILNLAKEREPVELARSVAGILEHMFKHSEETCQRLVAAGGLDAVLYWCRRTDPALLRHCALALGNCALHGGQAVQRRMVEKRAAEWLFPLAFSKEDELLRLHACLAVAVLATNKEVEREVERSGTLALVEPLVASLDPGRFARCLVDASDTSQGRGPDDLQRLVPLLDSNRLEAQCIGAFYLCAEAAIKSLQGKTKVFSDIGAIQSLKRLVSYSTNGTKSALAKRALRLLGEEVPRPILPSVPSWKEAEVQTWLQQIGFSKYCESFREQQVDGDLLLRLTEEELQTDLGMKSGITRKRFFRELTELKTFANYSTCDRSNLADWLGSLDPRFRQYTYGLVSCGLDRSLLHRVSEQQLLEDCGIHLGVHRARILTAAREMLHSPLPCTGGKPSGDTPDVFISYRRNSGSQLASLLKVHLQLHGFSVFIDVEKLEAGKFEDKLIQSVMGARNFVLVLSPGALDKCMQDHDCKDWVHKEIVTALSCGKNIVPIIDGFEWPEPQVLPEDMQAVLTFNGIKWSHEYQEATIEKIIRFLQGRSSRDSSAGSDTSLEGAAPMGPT
The experiment in a line: SARM1 NADase biochemical assay (HPLC of NAD and NAM). The following applies: 40 nM human SARM1(50-724), 0.3 mM NMN, 20 μM NAD, 60 minutes room temperature; dose-response from 100 μM, 1:3 dilution. As for the experimental part: Each reaction was run at a volume of 20 μL containing 50 μM compound (dissolved in DMSO; final concentration of DMSO is 1% v/v), 40 nM human SARM1(50-724), 0.3 mM NMN, 20 μM NAD, 1 mM TCEP, 25 mM HEPES pH 7.4, 10 mM KCl and 10 mM MgCl2. The reaction was incubated at room temperature for 60 minutes and quenched with 20 μL of 0.4% formic acid. The samples were run on Agilent HPLC 1260 Infinity II with Synergi 2.5 μM Fusion-RP 100 Å (100×3.0 mm) LC column from Phenomenex. Total run time for each sample was 4 minutes. The run was isocratic with 1.5% methanol in 40 mM ammonium acetate pH 6.0. Samples were run at a flow rate of 0.8 mL/min at 55° C. Peak areas of NAD and NAM were determined using OpenLAB CDS (Chem Station edition) software. For dose-response, the compound was diluted serially 1:3 in DMSO and added to the reaction starting at a final compound concentration of 100 μM in 1% DMSO.
With `Cc1c(-c2ccncc2)n[nH]c1NC(=O)CCc1ccc(OC(F)F)cc1` [Example 55, 3-(4-(Difluoromethoxy)phenyl)-N-(4-methyl-3-(pyridin-4-yl)-1H-pyrazol-5-yl)propanamide], the 50% inhibitory concentration (IC50) was under 1000 nM. The result for `Cc1c(-c2ccncc2)n[nH]c1NC(=O)CCc1ccc(CF)cc1` [Example 56, 3-(4-(Fluoromethyl)phenyl)-N-(4-methyl-3-(pyridin-4-yl)-1H-pyrazol-5-yl)propanamide] reads under 1000 nM; that for `Cc1c(-c2ccncc2)n[nH]c1NC(=O)CCc1ccc(C(F)F)cc1` [Example 57, 3-(4-(Difluoromethyl)phenyl)-N-(4-methyl-3-(pyridin-4-yl)-1H-pyrazol-5-yl)propanamide], under 1000 nM.

For `Cc1c(-c2ccncc2)n[nH]c1NC(=O)CCc1c(F)c(F)c(F)c(F)c1F` [Example 58, N-(4-Methyl-3-(pyridin-4-yl)-1H-pyrazol-5-yl)-3-(perfluorophenyl)propanamide], the half-inhibitory concentration (IC50) was under 1000 nM. With `Cc1c(-c2ccncc2)n[nH]c1NC(=O)CCc1ccc(F)nc1` [Example 59, 3-(6-Fluoropyridin-3-yl)-N-(4-methyl-3-(pyridin-4-yl)-1H-pyrazol-5-yl)propanamide] the figure was under 1000 nM; with `Cc1c(-c2ccncc2)n[nH]c1NC(=O)CCc1cnc(F)nc1` [Example 60, 3-(2-Fluoropyrimidin-5-yl)-N-(4-methyl-3-(pyridin-4-yl)-1H-pyrazol-5-yl)propanamide], under 1000 nM. The result for `Cc1c(-c2ccncc2)n[nH]c1NC(=O)CCc1cnc(Cl)nc1` [Example 61, 3-(2-Chloropyrimidin-5-yl)-N-(4-methyl-3-(pyridin-4-yl)-1H-pyrazol-5-yl)propanamide] reads under 1000 nM; that for `Cc1c(-c2ccncc2)n[nH]c1NC(=O)COc1ccc(Cl)cc1` [Example 62, 2-(4-Chlorophenoxy)-N-(4-methyl-3-(pyridin-4-yl)-1H-pyrazol-5-yl)acetamide], under 1000 nM; that for `Cc1c(-c2ccncc2)n[nH]c1NC(=O)CSc1ccc(Cl)cc1` [Example 63, 2-((4-Chlorophenyl)thio)-N-(4-methyl-3-(pyridin-4-yl)-1H-pyrazol-5-yl)acetamide], under 1000 nM. In the case of `Cc1c(-c2ccncc2)n[nH]c1NC(=O)CCc1ccc(Cl)c(F)c1` [Example 64, 3-(4-Chloro-3-fluorophenyl)-N-(4-methyl-3-(pyridin-4-yl)-1H-pyrazol-5-yl)propanamide], the half-inhibitory concentration (IC50) is under 1000 nM. Consider `Cc1c(-c2ccncc2)n[nH]c1NC(=O)CCc1cc(F)c(C#N)c(F)c1` [Example 65, 3-(4-Cyano-3,5-difluorophenyl)-N-(4-methyl-3-(pyridin-4-yl)-1H-pyrazol-5-yl)propanamide], for which the half-inhibitory concentration (IC50) is under 1000 nM. With `Cc1c(-c2ccncc2)n[nH]c1NC(=O)CC1CCCc2ccccc21` (stereo not drawn) [Example 66, N-[4-Methyl-3-(pyridin-4-yl)-1H-pyrazol-5-yl]-2-(1,2,3,4-tetrahydronaphthalen-1-yl)acetamide] the figure was 1000 to 10000 nM.

In the case of `Cc1c(-c2ccncc2)n[nH]c1NC(=O)CC1CCc2cc(Cl)ccc21` (stereo not drawn) [Example 67, 2-(5-Chloro-2,3-dihydro-1H-inden-1-yl)-N-[4-methyl-3-(pyridin-4-yl)-1H-pyrazol-5-yl]acetamide], the IC50 was under 1000 nM.

As for `Cc1c(-c2ccncc2)n[nH]c1NC(=O)CC1CCCc2cc(Cl)ccc21` (stereo not drawn) [Example 68, 2-(6-Chloro-1,2,3,4-tetrahydronaphthalen-1-yl)-N-[4-methyl-3-(pyridin-4-yl)-1H-pyrazol-5-yl]acetamide], the IC50 is 1000 to 10000 nM. Consider `Cc1c(-c2ccncc2)n[nH]c1NC(=O)/C(F)=C(\F)c1ccc(Cl)cc1` [Example 69, (E)-3-(4-chlorophenyl)-2,3-difluoro-N-(4-methyl-3-(pyridin-4-yl)-1H-pyrazol-5-yl)acrylamide], for which the IC50 fell in the range of 1000 to 10000 nM.

With `Cc1c(-c2ccncc2)n[nH]c1NC(=O)C#Cc1ccc(Cl)cc1` [Example 72, 3-(4-Chlorophenyl)-N-(4-methyl-3-(pyridin-4-yl)-1H-pyrazol-5-yl)propiolamide], the IC50 lay in the range of 1000 to 10000 nM. The result for `Cc1c(-c2ccncc2)n[nH]c1NC(=O)CCc1cc(Cl)cs1` [Example 73] reads under 1000 nM. As to `Cc1c(-c2ccncc2)n[nH]c1NC(=O)CCc1ccc(Cl)s1` [Example 74], the half-inhibitory concentration (IC50) is under 1000 nM. With `Cc1c(-c2ccncc2)n[nH]c1NC(=O)CCc1cnc(Cl)s1` [Example 75, 3-(2-Chlorothiazol-5-yl)-N-(4-methyl-3-(pyridin-4-yl)-1H-pyrazol-5-yl)propanamide], the half-maximal inhibitory concentration (IC50) is under 1000 nM. In the case of `Cc1c(-c2ccncc2)n[nH]c1NC(=O)CCc1ncc(Cl)s1` [Example 76], the IC50 fell in the range of 1000 to 10000 nM. With `Cc1c(-c2ccncc2)n[nH]c1NC(=O)CCn1cc(Cl)cn1` [Example 77, 3-(4-Chloro-1H-pyrazol-1-yl)-N-(4-methyl-3-(pyridin-4-yl)-1H-pyrazol-5-yl)propenamide] the figure was 1000 to 10000 nM; with `Cc1c(-c2ccncc2)n[nH]c1NC(=O)CCc1cc(Cl)no1` [Example 78, 3-(3-Chloroisoxazol-5-yl)-N-(4-methyl-3-(pyridin-4-yl)-1H-pyrazol-5-yl)propanamide], under 1000 nM. For the molecule `Cc1c(-c2ccncc2)n[nH]c1NC(=O)CNc1ccc(Cl)cc1` [Example 79, 2-((4-Chlorophenyl)amino)-N-(4-methyl-3-(pyridin-4-yl)-1H-pyrazol-5-yl)acetamide], the IC50 was under 1000 nM. The result for `Cc1c(-c2ccncc2)n[nH]c1NC(=O)C(F)(F)Cc1ccc(Cl)cc1` [Example 80, 3-(4-Chlorophenyl)-2,2-difluoro-N-(4-methyl-3-(pyridin-4-yl)-1H-pyrazol-5-yl)propanamide] reads 1000 to 10000 nM; that for `Cc1c(NC(=O)CSc2ccc(Cl)cc2)cnn1-c1ccncc1` [Example 81, 2-((4-Chlorophenyl)thio)-N-(5-methyl-1-(pyridin-4-yl)-1H-pyrazol-4-yl)acetamide], under 1000 nM. Turning to `Cc1c(NC(=O)CCc2ccc(Cl)nc2)cnn1-c1ccncc1` [Example 82], the concentration for half-maximal inhibition (IC50) was under 1000 nM. On to `Cc1c(NC(=O)CCc2cc(F)c(Cl)c(F)c2)cnn1-c1ccncc1` [Example 83, 3-(4-Chloro-3,5-difluorophenyl)-N-(5-methyl-1-(pyridin-4-yl)-1H-pyrazol-4-yl)propanamide], for which the IC50 was under 1000 nM. The result for `Cc1c(NC(=O)CCc2cc(F)c(F)c(F)c2)cnn1-c1ccncc1` [Example 84, N-(5-Methyl-1-(pyridin-4-yl)-1H-pyrazol-4-yl)-3-(3,4,5-trifluorophenyl)propanamide] reads under 1000 nM; that for `Cc1c(NC(=O)COc2ccc(Cl)cc2)cnn1-c1ccncc1` [Example 85, 2-(4-Chlorophenoxy)-N-(5-methyl-1-(pyridin-4-yl)-1H-pyrazol-4-yl)acetamide], 1000 to 10000 nM. For `Cc1c(NC(=O)CCc2ccc(Cl)cc2)cnn1-c1ccncc1` [Example 86], the IC50 is under 1000 nM. With `O=C(CCc1cc(F)c(Cl)c(F)c1)Nc1cnn(-c2ccncc2)c1` [Example 88, 3-(4-Chloro-3,5-difluorophenyl)-N-[1-(pyridin-4-yl)-1H-pyrazol-4-yl]propanamide] the figure was under 1000 nM; with `O=C(CCc1ccc(Cl)cc1)Nc1cnn(-c2ccncc2)c1` [Example 89, 3-(4-Chlorophenyl)-N-(1-(pyridin-4-yl)-1H-pyrazol-4-yl)propanamide], 1000 to 10000 nM; with `O=C(CCc1ccc(Cl)cc1)Nc1cnn(-c2ccncc2)c1Cl` [Example 90], under 1000 nM.

Take `O=C(CCc1cc(F)c(Cl)c(F)c1)Nc1cnn(-c2ccncc2)c1Cl` [Example 91, N-(5-Chloro-1-(pyridin-4-yl)-1H-pyrazol-4-yl)-3-(4-chloro-3,5-difluorophenyl)propanamide]: the IC50 is under 1000 nM.

Consider `O=C(CCc1cc(F)c(F)c(F)c1)Nc1cnn(-c2ccncc2)c1Cl` [Example 92, N-(5-Chloro-1-(pyridin-4-yl)-1H-pyrazol-4-yl)-3-(3,4,5-trifluorophenyl)propanamide], for which the half-inhibitory concentration (IC50) was under 1000 nM.

Regarding `N#Cc1c(F)cc(CCC(=O)Nc2cnn(-c3ccncc3)c2Cl)cc1F` [Example 93, N-(5-Chloro-1-(pyridin-4-yl)-1H-pyrazol-4-yl)-3-(4-cyano-3,5-difluorophenyl)propanamide], the IC50 was under 1000 nM.
